Reference: patent publication US20160237044A1, “SUBSTITUTED PHENYLALANINE DERIVATIVES” (BAYER PHARMA AKTIENGESELLSCHAFT, priority 2013, published 2016)
Counter-ions that a name gives are not always drawn.

Columns and labels:
human factor XIa = biological target: T1, human factor XIa (Homo sapiens, UniProt P03951); test: Measurement of FXIa inhibition (fluorogenic peptide substrate Boc-Glu(OBzl)-Ala-Arg-AMC); type: biochemical; details: factor XIa from Kordia, 15 min preincubation, 30 min at 22° C., fluorescence; read-out: IC50
T1 construct: purchased Kordia
Protocol: a.1) Measurement of FXIa Inhibition
The factor XIa inhibition of the substances according to the invention is determined using a biochemical test system which utilizes the reaction of a peptidic factor XIa substrate to determine the enzymatic activity of human factor XIa. Here, factor XIa cleaves from the peptic factor XIa substrate the C-terminal aminomethylcoumarin (AMC), the fluorescence of which is measured. The determinations are carried out in microtitre plates.
(§1) In each case 1 μl of the diluted substance solutions is placed into the wells of white microtitre plates from Greiner (384 wells). […] After 15 min of incubation, the enzyme reaction is started by addition of 20 μl of the factor XIa substrate Boc-Glu(OBzl)-Ala-Arg-AMC dissolved in assay buffer (10 μM in assay buffer) from Bachem, the mixture is incubated at room temperature (22° C.) for 30 min and fluorescence is then measured (excitation: 360 nm, emission: 460 nm). The measured emissions of the test batches with test substance are compared to those of control batches without test substance (only dimethyl sulphoxide instead of test substance in dimethyl sulphoxide), and IC50 values are calculated from the concentration/activity relationships.

plasma = test: Determination of anticoagulatory activity: activated partial thromboplastin time (aPTT) in plasma; type: biochemical, human; details: concentration of test substance which brings about a 1.5-fold extension of the aPTT, C.K. Prest kit, 37° C.
Protocol: a.4) Determination of Anticoagulatory Activity
The anticoagulatory activity of the test substances is determined in vitro in human and animal plasma (for example mouse, rat, rabbit, pig and dog plasma). To this end, blood is drawn off in a mixing ratio of sodium citrate/blood of 1:9 using a 0.11 molar sodium citrate solution as receiver. Immediately after the blood has been drawn off, it is mixed thoroughly and centrifuged at about 4000 g for 15 minutes. The supernatant is pipetted off.
The activated partial thromboplastin time (aPTT) is determined in the presence of varying concentrations of test substance or the corresponding solvent using a commercial test kit (C.K. Prest from Diagnostica Stago). The test compounds are incubated with the plasma and the PTT reagent (cephalin, kaolin) at 37° C. for 3 minutes. Coagulation is then started by addition of a 25 mM aqueous calcium chloride solution, and the time when coagulation occurs is determined. The concentration of test substance which brings about a 1.5-fold extension of the aPTT is determined.

human plasmin = biological target: T2, human plasmin (Homo sapiens, UniProt P00747); test: Measurement of plasmin inhibition (fluorogenic peptide substrate MeOSuc-Ala-Phe-Lys-AMC); type: biochemical; details: plasmin from Kordia, 15 min preincubation, 30 min at 22° C., fluorescence
T2 construct: purchased Kordia
Protocol: a.6) Measurement of Plasmin Inhibition
The plasmin inhibition of the inventive substances is determined using a biochemical test system which utilizes the reaction of a peptidic plasmin substrate to determine the enzymatic activity of human plasmin. Here, plasmin cleaves from the peptic plasmin substrate the C-terminal aminomethylcoumarin (AMC), the fluorescence of which is measured. The determinations are carried out in microtitre plates.
as §1, with “Test substances are dissolved in dimethyl sulphoxide and serially diluted in dimethyl sulphoxide (3000 μM to 0.0078 μM; resulting final concentrations in the test: 50 μM to 0.00013 μM). In” for “In”, “plasmin” for “factor XIa”, “MeOSuc-Ala-Phe-Lys-AMC” for “Boc-Glu(OBzl)-Ala-Arg-AMC”, “(150” for “(10”

T2 sequence (P00747 581-810 limits assumed): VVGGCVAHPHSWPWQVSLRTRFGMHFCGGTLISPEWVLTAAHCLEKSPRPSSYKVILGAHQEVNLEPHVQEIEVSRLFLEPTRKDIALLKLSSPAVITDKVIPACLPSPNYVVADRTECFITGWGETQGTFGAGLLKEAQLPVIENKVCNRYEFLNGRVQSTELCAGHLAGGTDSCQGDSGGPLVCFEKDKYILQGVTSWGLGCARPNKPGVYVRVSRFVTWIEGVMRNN
T2 sequence (P00747 97-580 partner limits assumed): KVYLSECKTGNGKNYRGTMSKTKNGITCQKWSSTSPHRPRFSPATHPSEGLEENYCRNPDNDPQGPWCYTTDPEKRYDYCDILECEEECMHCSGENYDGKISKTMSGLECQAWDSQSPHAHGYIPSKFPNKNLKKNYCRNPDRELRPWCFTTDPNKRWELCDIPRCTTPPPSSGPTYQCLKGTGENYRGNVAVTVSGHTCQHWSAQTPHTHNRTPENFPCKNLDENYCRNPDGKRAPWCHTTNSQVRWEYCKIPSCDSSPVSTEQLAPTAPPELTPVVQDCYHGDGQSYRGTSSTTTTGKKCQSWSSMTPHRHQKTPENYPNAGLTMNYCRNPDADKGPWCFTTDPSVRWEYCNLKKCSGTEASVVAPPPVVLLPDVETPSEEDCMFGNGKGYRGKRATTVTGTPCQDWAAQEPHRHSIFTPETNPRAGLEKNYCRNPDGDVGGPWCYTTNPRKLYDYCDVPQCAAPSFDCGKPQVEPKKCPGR
T1 sequence (P03951 388-625 limits assumed): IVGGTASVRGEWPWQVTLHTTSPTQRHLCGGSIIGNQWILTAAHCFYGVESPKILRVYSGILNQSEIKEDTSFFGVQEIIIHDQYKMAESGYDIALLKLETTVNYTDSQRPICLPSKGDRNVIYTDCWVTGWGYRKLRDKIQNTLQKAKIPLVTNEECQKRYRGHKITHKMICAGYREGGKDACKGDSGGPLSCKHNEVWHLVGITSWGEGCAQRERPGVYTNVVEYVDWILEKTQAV
T1 sequence (P03951 19-387 partner limits assumed): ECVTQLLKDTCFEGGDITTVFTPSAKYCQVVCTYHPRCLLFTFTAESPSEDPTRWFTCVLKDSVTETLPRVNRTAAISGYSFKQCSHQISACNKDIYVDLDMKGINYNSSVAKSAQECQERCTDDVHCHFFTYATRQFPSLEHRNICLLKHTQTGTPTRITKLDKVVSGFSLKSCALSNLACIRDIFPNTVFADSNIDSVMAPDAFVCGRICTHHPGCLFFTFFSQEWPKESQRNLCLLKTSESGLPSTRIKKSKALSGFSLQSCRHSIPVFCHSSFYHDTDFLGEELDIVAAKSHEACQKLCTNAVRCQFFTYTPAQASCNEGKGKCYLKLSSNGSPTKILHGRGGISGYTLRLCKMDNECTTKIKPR

Row | SMILES | IC50 (human factor XIa) [nM] | Concentration for 1.5-fold aPTT extension (plasma) [µmol/L] | IC50 (human plasmin) [nM]
1 | Cc1cc(S(=O)(=O)NC2CC2)ccc1-c1ccc(C[C@H](NC(=O)[C@H]2CC[C@H](CN)CC2)C(=O)Nc2ccc3c(=O)[nH][nH]c3c2)cc1 [Example 12, trans-4-(Aminomethyl)-N-{(2S)-3-[4′-(cyclopropylsulphamoyl)-2′-methylbiphenyl-4-yl]-1-oxo-1-[(3-oxo-2,3-dihydro-1H-indazol-6-yl)amino]propan-2-yl}cyclohexanecarboxamide hydrochloride] | 2.7 | 0.04 | 30
2 | Cc1cc(S(=O)(=O)N2CCCC2)ccc1-c1ccc(C[C@H](NC(=O)[C@H]2CC[C@H](CN)CC2)C(=O)Nc2ccc3c(=O)[nH][nH]c3c2)cc1 [Example 15, trans-4-(Aminomethyl)-N-{(2S)-3-[2′-methyl-4′-(pyrrolidin-1-ylsulphonyl)biphenyl-4-yl]-1-oxo-1-[(3-oxo-2,3-dihydro-1H-indazol-6-yl)amino]propan-2-yl}cyclohexanecarboxamide hydrochloride] | 2.8 | 0.09 | 23
